Experimental data from ChEMBL document CHEMBL4024782, “Structure-Guided Synthesis and Mechanistic Studies Reveal Sweetspots on Naphthyl Salicyl Hydrazone Scaffold as Non-Nucleosidic Competitive, Reversible Inhibitors of Human Ribonucleotide Reductase” (J Med Chem, 2018).
The source made the active and inactive calls. No cut-off for these calls is given here.

Key:
[1] = molecular target: T1, Ribonucleoside-diphosphate reductase large subunit (Homo sapiens, UniProt P23921); assay: Inhibition of human RRM1 expressed in Escherichia coli BL21-codon plus(DE3)-RIL using [14C]-ADP as substrate after 3 mins by liquid scintillation counting method
T1 sequence (P23921 whole entry): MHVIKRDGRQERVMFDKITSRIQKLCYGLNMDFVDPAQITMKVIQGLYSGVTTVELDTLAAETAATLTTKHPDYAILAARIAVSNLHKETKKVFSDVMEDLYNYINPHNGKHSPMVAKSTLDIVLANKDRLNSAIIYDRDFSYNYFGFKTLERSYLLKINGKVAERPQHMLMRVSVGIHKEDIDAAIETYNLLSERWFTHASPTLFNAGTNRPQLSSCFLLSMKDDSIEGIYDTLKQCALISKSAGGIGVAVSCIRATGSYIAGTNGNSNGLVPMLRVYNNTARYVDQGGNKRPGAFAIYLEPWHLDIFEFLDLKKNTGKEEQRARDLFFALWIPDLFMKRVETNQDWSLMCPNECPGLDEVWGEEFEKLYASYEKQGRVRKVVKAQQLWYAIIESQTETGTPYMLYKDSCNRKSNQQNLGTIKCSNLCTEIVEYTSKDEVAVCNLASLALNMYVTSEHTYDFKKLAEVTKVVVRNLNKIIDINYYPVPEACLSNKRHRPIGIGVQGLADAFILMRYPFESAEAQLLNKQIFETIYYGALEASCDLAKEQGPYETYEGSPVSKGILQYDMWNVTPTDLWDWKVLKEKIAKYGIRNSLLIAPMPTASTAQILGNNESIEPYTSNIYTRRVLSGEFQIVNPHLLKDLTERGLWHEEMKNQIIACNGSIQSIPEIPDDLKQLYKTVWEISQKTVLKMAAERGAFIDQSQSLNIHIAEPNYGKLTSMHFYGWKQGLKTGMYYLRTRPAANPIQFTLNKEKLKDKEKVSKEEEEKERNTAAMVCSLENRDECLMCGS

[2] = molecular target: T2, Ribonucleoside-diphosphate reductase subunit M2 (Homo sapiens, UniProt P31350); assay: Inhibition of human RRM2 expressed in Escherichia coli BL21-codon plus(DE3) using [14C]-ADP as substrate after 3 mins by liquid scintillation counting method
T2 sequence (P31350 whole entry): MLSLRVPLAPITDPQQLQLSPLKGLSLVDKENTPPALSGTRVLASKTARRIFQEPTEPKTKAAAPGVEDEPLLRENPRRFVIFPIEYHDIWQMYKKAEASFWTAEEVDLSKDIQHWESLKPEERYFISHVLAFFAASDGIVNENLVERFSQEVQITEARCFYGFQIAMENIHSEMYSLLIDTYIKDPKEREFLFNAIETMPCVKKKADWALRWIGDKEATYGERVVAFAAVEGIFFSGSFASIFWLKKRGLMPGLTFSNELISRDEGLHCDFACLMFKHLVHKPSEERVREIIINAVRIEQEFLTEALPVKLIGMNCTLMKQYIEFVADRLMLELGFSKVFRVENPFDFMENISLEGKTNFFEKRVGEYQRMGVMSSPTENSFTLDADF

MDA-MB-231 [3] = assay: cells; conditions: Homo sapiens, MDA-MB-231, 72 h
MDA-MB-231 [4] = assay: cells; conditions: Homo sapiens, MDA-MB-231, 120 h
MDA-MB-231 [5] = assay: cells; conditions: Homo sapiens, MDA-MB-231, 120 h; remark: listed apart in the source
MDA-MB-231 [6] = assay: cells; conditions: Homo sapiens, MDA-MB-231, 120 h; remark: listed apart in the source
[7] = Metal chelating activity in pH 7 ammonium acetate buffer assessed as Mg2+-compound complex formation at compound to metal ratio of 1:1 to 1:10 under anaerobic condition by UV spectroscopic method; format: functional
[8] = Metal chelating activity in pH 7 ammonium acetate buffer assessed as Fe3+-compound complex formation at compound to metal ratio of 1:1 to 1:50 under anaerobic condition by UV spectroscopic method; format: functional
MDA-MB-231 [9] = assay: cells; conditions: Homo sapiens, MDA-MB-231, 120 h; remark: listed apart in the source
[10] = Metal chelating activity in pH 7 ammonium acetate buffer assessed as Fe2+-compound complex formation at compound to metal ratio of 1:4 to 1:50 under anaerobic condition by UV spectroscopic method; format: functional

Molecule `O=C(N/N=C/c1c(O)ccc2ccccc12)OCc1ccccc1` has an IC50 [1] of 120000 nM.
For `NC(=S)N/N=C/c1ncccc1N` [TRIAPINE], the IC50 [2] was 185 nM.
`Nc1ccn([C@@H]2O[C@H](CO)[C@@H](O)C2(F)F)c(=O)n1` [GEMCITABINE] showed an IC50 (MDA-MB-231 [3]) of 30 to 100 nM.
`COc1cc(/C=N/N=C/c2c(O)ccc3ccccc23)ccc1O` gave an IC50 [1] of 687000 nM.
Molecule `O=S(=O)(Cc1ccccc1)N/N=C/c1c(O)ccc2ccccc12` has an IC50 [1] of 131000 nM.
`O=C(N/N=C/c1c(O)ccc2ccccc12)c1ccccc1O` showed an IC50 (MDA-MB-231 [4]) of 1490 nM, an IC50 (MDA-MB-231 [5]) of 347 nM and an IC50 (MDA-MB-231 [6]) of 1430 nM. For the same molecule, the Activity [7] was “inactive”, the Activity [8] was “inactive” and the IC50 [2] was 123000 nM. The IC50 (MDA-MB-231 [9]) was 1940 nM and the Activity [10] was “Active”.
